Laboratory results reported in patent US20120040976A1, “SMALL MOLECULE IMMUNOMODULATORS FOR ALZHEIMER'S DISEASE” (HUMAN BIOMOLECULAR RESEARCH INSTITUTE, priority 2008, published 2012).
Converted amounts (≈) assume the structure as drawn.

How the values were obtained:
[1] = Metabolic stability in human liver microsomes; assay type: in vitro ADME; conditions: human, read-out: Half life, t1/2 HLM
[2] = Chemical stability (H2O, pH 7.4); assay type: physicochemical
TLR3 = TLR3 gene expression by qPCR in U-937 human monocytic cells treated with curcumins plus Aβ; assay type: cell-based; conditions: for Relative gene expression TLR3, increased expression relative to control cells: human monocytic cells (U-937), curcumin plus Aβ
Experimental: (§1) Cell culture conditions for monocytic cell lines. Human and mouse monocyte cell lines are grown in RPMI-1640 medium with 10% fetal bovine serum (FBS), plus glutamine and pen/strep. For treatment with compounds (curcuminoids+/−Aβ), replicate sets of 0.5-1.0 mL cultures containing 1-2×10^6 cells are set up in the wells of 48-well tissue culture plates. Both replicate sets have at least one control well receiving no added curcuminoid to provide baseline expression controls for untreated, and Aβ-only treated cells. Remaining wells receive curcuminoid in a range of 10-fold serial dilutions in DMSO, typically from […] Cultures are incubated for 20-24 hours (“overnight”) at 37° C. in atmosphere with 5% CO2. After one overnight, to one of replicate sets of cultures is added Aβ (1-42) peptide to a final concentration of 5 μg/mL.
(§2) RNA isolation and cDNA synthesis. After the first overnight incubation in the presence of curcuminoid, cells from one replicate set of wells are collected by centifugation. RNAs are extracted from pelleted cells using miniprep column kits following manufacturer's protocol for animal cells. […] of total cellular RNA from each well is quantitated using a Nanodrop spectrophotometer, and first-strand total cDNA is prepared from 0.3-1.0 μg RNA by random-hexamer priming. Following the second 20 hr. incubation in the presence of Aβ, RNA extractions and cDNA synthesis are similarly performed.
(§3) Assay development. Gene-specific mRNA levels are determined using a real-time thermocycler, and by normalizing to expression of one or more control genes. Assays for quantifying mRNA levels are based on gene sequences reported in NCBI Genbank. PCR oligonucleotide primers are selected spanning introns to minimize the opportunity for amplication from any contaminating genomic DNA in the RNA preps. Oligonucleotides are typically tested and used at a concentration of 200 nM in qPCR reactions containing SYBR dye. Control reactions include template from cDNA synthesis reactions either + or − reverse transcriptase (RT), as well as no-template controls (ntc). All reactions are performed in triplicate. Reactions are typically run with 40 cycles of 95° C. (10 sec) and 58° C. (30 sec). Melt curves based on incremental 0.5° C. increases are determined for new assays to test for uniformity of amplified products. Reaction conditions are modified as needed depending on initial test results. ‘Working’ assays are selected based on clear RNA-dependent amplification and absence of product in ‘ntc’ reactions. The following assay primers are used: […]
(§4) qPCR reactions of cultured monocyte cDNAs. One μL total cellular cDNA per reaction is used in triplicate reactions for each test gene, and for each culture treatment. SYBR-Green reactions were run on a Continuous Fluorescence real-time thermocycler and analyzed. Cycle threshold (Ct) values are recorded for each replicate reaction, and are then averaged and normalized against mean Ct values from one or more control genes. Fold-expression differences relative to untreated cells are determined using the 2^−ΔΔCt method as previously described. Data from the curcumin concentration range are plotted in order to determine EC50 values (concentrations producing one-half maximal stimulant activity), which are used for comparisons of potency between different compounds. Data are also evaluated for each gene with regard to sensitivity, maximally effective concentration of curcuminoid, response to Aβ, and overall magnitude of fold-expression changes.
(§5) Data showing in vitro up-regulation of genes associated with Aβ phagocytosis in response to curcumins. Natural curcumins and synthetic analogs were tested in U-937 human monocyte cells in vitro for their ability to modulate expression of the genes MGAT3 and TLRs −2, −3, and −4. […]

VDR = VDR gene expression by qPCR in U-937 human monocytic cells treated with curcumins plus Aβ; assay type: cell-based; conditions: for Relative gene expression VDR, increased expression relative to control cells: human monocytic cells (U-937), curcumin plus Aβ
Experimental: as §1, §2, §3, §4, §5

Average solubility = assay type: physicochemical
TLR4 = TLR4 gene expression by qPCR in U-937 human monocytic cells treated with curcumins plus Aβ; assay type: cell-based; conditions: human monocytic cells (U-937), curcumin plus Aβ
Experimental: as §1, §2, §3
as §4, with “Data from the curcumin concentration range are plotted in order to determine EC50 values (concentrations producing one-half maximal stimulant activity), which are used for comparisons of potency between different compounds.” left out, “changes. […]” for “changes.”

TLR2 = TLR2 gene expression by qPCR in U-937 human monocytic cells treated with curcumins plus Aβ; assay type: cell-based; conditions: human monocytic cells (U-937), curcumin plus Aβ
Experimental: as §1, §2, §3
as §4, with “Data from the curcumin concentration range are plotted in order to determine EC50 values (concentrations producing one-half maximal stimulant activity), which are used for comparisons of potency between different compounds.” left out, “changes. […]” for “changes.”

MGAT3 [3] = assay: MGAT3 gene expression by qPCR in U-937 human monocytic cells treated with curcumins plus Aβ; assay type: cell-based; conditions: human monocytic cells (U-937), curcumin plus Aβ
Experimental: as §1, §2
as §3, with “All reactions are performed in triplicate. Reactions are typically run with 40 cycles of 95° C. (10 sec) and 58° C. (30 sec).” left out, “products.” for “products. Reaction conditions are modified as needed depending on initial test results. ‘Working’ assays are selected based on clear RNA-dependent amplification and absence of product in ‘ntc’ reactions. The following assay primers are used:”
qPCR reactions of cultured monocyte cDNAs. […] SYBR-Green reactions were run on a Continuous Fluorescence real-time thermocycler and analyzed. Cycle threshold (Ct) values are recorded for each replicate reaction, and are then averaged and normalized against mean Ct values from one or more control genes. Fold-expression differences relative to untreated cells are determined using the 2^−ΔΔCt method as previously described. […] Data are also evaluated for each gene with regard to sensitivity, maximally effective concentration of curcuminoid, response to Aβ, and overall magnitude of fold-expression changes. […]

Average permeability = assay type: in vitro ADME; conditions: not told
[4] = Metabolic stability in human S9 fraction; assay type: in vitro ADME; conditions: read-out: Half life, t1/2 S9
TLR 3 = TLR 3 transcription ratio, AD patient / control PBMCs (qPCR); assay type: cell-based, human; conditions: Aβ stimulation
Experimental: as §4
(§6) MGAT3 and/or TLR transcription were tested by qPCR in human monocyte cells treated with curcuminoids and compared the results to those treated with vehicle (Table 7). As discussed above, activation or up-regulation of macrophage MGAT3 or TLR's results in many functional outcomes, including the enhancement of […] and removal of Aβ, increased apoptosis, secretion of inflammatory cytokines, and other anti-AD antimicrobial activities. […] Thus, the ratio of MGAT3 or TLR transcription upon Aβ stimulation of human monocytes versus vehicle treatment provides an indicator and sensitive method to test the in vitro efficacy of drug candidates. […] The relative biological activity of the curcumin analogs in AD patient and control cells was ascertained in the in vitro Aβ assay described above (see Example 2).

TLR 4 = TLR 4 transcription ratio, AD patient / control PBMCs (qPCR); assay type: cell-based, human; conditions: Aβ stimulation
Experimental: as §4, §6

TLR 2 = TLR 2 transcription ratio, AD patient / control PBMCs (qPCR); assay type: cell-based, human; conditions: Aβ stimulation
Experimental: as §4, §6

MGAT3 [5] = assay: MGAT3 transcription ratio, AD patient / control PBMCs (qPCR); assay type: cell-based, human; conditions: Aβ stimulation
Experimental: as §4, §6

[6] = water (aqueous solution), pH 7.4, value given in h, read-out: Chemical stability t1/2 pH 7.4 (converted)
[7] = water, H2O, value given in h, read-out: Chemical stability t1/2 H2O (converted)

COc1cc(/C=C/C(=O)/C=C(O)/C=C/c2ccc(OC(=O)C(N)CCCCN)c(OC)c2)ccc1OC(=O)C(N)CCCCN (centres unmarked) [Compound 36, 4,4′-(3,5-dioxohepta-1,6-diene-1,7-diyl)bis(2-methoxy-4,1-phenylene)bis(2,6-diaminohexanoate)]
half-life [1]: 19.9 min
Chemical stability pH 7.4 (stable/unstable) ([2]; pH 7.4): unstable (stability half-lives less than 5 minutes)
half-life ([2]; water, H2O, read-out: Chemical stability t1/2 H2O (converted)): 10.2 min
Relative gene expression TLR3, increased expression relative to control cells (TLR3): + ((+) <20-fold)
Relative gene expression VDR, increased expression relative to control cells (VDR): + ((+) <20-fold)
Solubility compared with parent compounds (in words) (Average solubility): significantly improved solubility
solubility (Average solubility): 30.6 µg/mL (≈ 49 µM)
Relative gene expression TLR4, increased expression relative to control cells (TLR4): + ((+) <20-fold)
Relative gene expression TLR2, increased expression relative to control cells (TLR2): + ((+) <20-fold)
Relative gene expression MGAT3, increased expression relative to control cells (MGAT3 [3]): + ((+) <20-fold)
Papp (Average permeability): 718 ×10⁻⁶ cm/s
half-life [4]: 4.5 min

COc1ccc(F)cc1/C=C/C(=O)/C=C(O)/C=C/c1cc(F)ccc1OC [Compound 26, 1,7-bis-(5-Fluoro-2-methoxyphenyl)-5-hydroxy-hepta-1,4,6-trien-3-one]
half-life [1]: 59.2 min
Chemical stability H2O (stable/unstable) ([2]; H2O): stable (stability half-lives greater than 5 hours)
Chemical stability pH 7.4 (stable/unstable) ([2]; pH 7.4): stable (stability half-lives greater than 5 hours)
solubility (Average solubility): 0.44 µg/mL (≈ 1.18 µM)
Relative ratio of TLR 3 transcription in AD patient / control PBMC's (TLR 3): TLR 3 ++ ((++) indicates a ratio of 1.5-2.0)
Papp (Average permeability): 129 ×10⁻⁶ cm/s
half-life [4]: 8.2 min
Relative ratio of TLR 4 transcription in AD patient / control PBMC's (TLR 4): TLR 4 + ((+) indicates a ratio of 1.0-1.5)
Relative ratio of TLR 2 transcription in AD patient / control PBMC's (TLR 2): TLR 2 + ((+) indicates a ratio of 1.0-1.5)
IC50 (Anti-oxidant activity): > 250 µM

CC(C)C(N)C(=O)Oc1ccc(/C=C/C(=O)/C=C(O)/C=C/c2ccc(OC(=O)C(N)C(C)C)cc2)cc1 (centres unmarked) [Compound 33, 4,4′-(3,5-Dioxohepta-1,6-diene-1,7-diyl)bis(4,1-phenylene) bis(2-amino-3-methylbutanoate)]
half-life [1]: 23.8 min
half-life [2, 6]: 60 min
half-life [2, 7]: 1130 min
TLR3 expression response (in words) (TLR3; U-937, plus Aβ (FIG. 3)): limited response
Relative gene expression TLR3, increased expression relative to control cells (TLR3): + ((+) <20-fold)
VDR normalized expression response (in words) (VDR; human monocytes, plus Aβ): somewhat higher expression
Relative gene expression VDR, increased expression relative to control cells (VDR): ++ ((++) >20-fold)
Solubility compared with parent compounds (in words) (Average solubility): significantly improved solubility
solubility (Average solubility): 18.2 µg/mL (≈ 35.9 µM)
Relative ratio of MGAT3 transcription in AD patient / control PBMC's (MGAT3 [5]): + ((+) indicates a ratio of 1.0-1.5)
Relative gene expression TLR4, increased expression relative to control cells (TLR4): + ((+) <20-fold)
Relative gene expression TLR2, increased expression relative to control cells (TLR2): + ((+) <20-fold)
Relative ratio of TLR 3 transcription in AD patient / control PBMC's (TLR 3): TLR 3 ++ ((++) indicates a ratio of 1.5-2.0)
Relative gene expression MGAT3, increased expression relative to control cells (MGAT3 [3]): +++ ((+++) >40-fold)
Papp (Average permeability): 316 ×10⁻⁶ cm/s
half-life [4]: 5.9 min
Relative ratio of TLR 4 transcription in AD patient / control PBMC's (TLR 4): TLR 4 + ((+) indicates a ratio of 1.0-1.5)
Relative ratio of TLR 2 transcription in AD patient / control PBMC's (TLR 2): TLR 2 ++ ((++) indicates a ratio of 1.5-2.0)
IC50 (Anti-oxidant activity): > 250 µM

COc1cc(N(C)C)ccc1/C=C/C(O)=C1\CCC/C(=C\c2ccc(N(C)C)cc2OC)C1=O [Compound 7, 2-(4-(Dimethylamino-2-methoxybenzylidene)-3-(4-(dimethylamino)-2-methoxyphenyl)-1-hydroxyallylidene)cyclohexanone]
half-life [1]: 127 min
Chemical stability H2O (stable/unstable) ([2]; H2O): stable^a (stability half-lives greater than 5 hours)
Chemical stability pH 7.4 (stable/unstable) ([2]; pH 7.4): stable (stability half-lives greater than 5 hours)
Relative ratio of MGAT3 transcription in AD patient / control PBMC's (MGAT3 [5]): +++ ((+++ to ++++) indicates a ratio of 2.0 and above)
Papp (Average permeability): 4.8 ×10⁻⁶ cm/s
half-life [4]: 184 min

COc1cc(/C=C/C(=O)/C=C(O)/C=C/c2ccc(OC(=O)C(N)C(C)C)c(OC)c2)ccc1OC(=O)C(N)C(C)C (centres unmarked) [Compound 35, 4,4′-(3,5-Dioxohepta-1,6-diene-1,7-diyl)bis(2-methoxy-4,1-phenylene)bis(2-amino-3-methylbutanoate)]
half-life [1]: 55.8 min
half-life [2, 6]: 138 min
half-life [2, 7]: 1090 min
solubility (Average solubility): 22.8 µg/mL (≈ 40.2 µM)
Relative ratio of MGAT3 transcription in AD patient / control PBMC's (MGAT3 [5]): ++ ((++) indicates a ratio of 1.5-2.0)
Papp (Average permeability): 572 ×10⁻⁶ cm/s
half-life [4]: 9 min
Relative ratio of TLR 4 transcription in AD patient / control PBMC's (TLR 4): TLR 4 + ((+) indicates a ratio of 1.0-1.5)
Relative ratio of TLR 2 transcription in AD patient / control PBMC's (TLR 2): TLR 2 +++ ((+++ to ++++) indicates a ratio of 2.0 and above)

COc1cc(N(C)C)ccc1/C=C/C(=O)/C=C(O)/C=C/c1ccc(N(C)C)cc1OC [Compound 3, 1,7-Bis(4-dimethylamino-2-methoxyphenyl)-5-hydroxy-hepta-1,4,6-trien-3-one]
half-life [1]: 63.6 min
half-life [2, 6]: 1530 min
half-life [2, 7]: 1190 min
solubility (Average solubility): 0.73 µg/mL (≈ 1.73 µM)
Relative ratio of MGAT3 transcription in AD patient / control PBMC's (MGAT3 [5]): ++ ((++) indicates a ratio of 1.5-2.0)
Relative ratio of TLR 3 transcription in AD patient / control PBMC's (TLR 3): TLR 3 ++ ((++) indicates a ratio of 1.5-2.0)
half-life [4]: 39.5 min
Relative ratio of TLR 4 transcription in AD patient / control PBMC's (TLR 4): TLR 4 ++ ((++) indicates a ratio of 1.5-2.0)
Relative ratio of TLR 2 transcription in AD patient / control PBMC's (TLR 2): TLR 2 ++ ((++) indicates a ratio of 1.5-2.0)
